Experimental data from patent publication US9273319B2, “Molecular switches and methods for making and using the same” (The Johns Hopkins University, priority 2002, dated 2016).
Values after ≈ are worked out from the molar mass of the structure shown.

The compounds below were run on DH5α/pDIMC8-Mal (assay: MIC for ampicillin on LB plates). Conditions: Escherichia coli.
Format: cell-based, E. coli
Source text: The E. coli […] was cloned into plasmid pDIMC8 (Ostermeier and Benkovic, 1999, Nat Biotechnol. 17:1205-1209) under control of the IPTG inducible lac promoter to create plasmid […].
Work on CC1(C)S[C@@H]2[C@H](NC(=O)[C@H](N)c3ccccc3)C(=O)N2[C@H]1C(=O)O [ampicillin] yielded an MIC of 30 to 35 µg/mL (≈ 85.9 to 100 µM).

Each compound was assayed against T1, T164-165 β-lactamase: maltose binding protein (MBP) fusion (Escherichia coli, UniProt P0AEX9, INS191[…]) (assay: Effect of sugars on the T164-165 fusion's hydrolysis of nitrocefin (FIG. 8)). Conditions: 150 μM nitrocefin, 5 mM of the indicated sugar.
T1 construct: made in house; host or cells: E. coli (library selected in malE auxotroph PM9F'; derivative of plasmid pDIMC8-Mal, IPTG-inducible lac promoter)
Format: biochemical, E. coli
Protocol: The fusion comprises an insertion of β-lactamase amino acid sequences into an MBP acceptor polypeptide with a tandem duplication of amino acids 164-165 of MBP at the insertion site. The velocity of nitrocefin hydrolysis with 150 μM nitrocefin and 5 mM of the indicated sugars was compared to the velocity without any sugar. […] All sugars known to bind to wildtype MBP and induce a conformational change (maltose, maltotriose and maltohexose) increase the rate of hydrolysis by approximately 40%.
Although MBP can bind many other linear maltodextrins, cyclodextrins and reduced or oxidized variants thereof, only those ligands which, induce a conformational change in MBP (Hall, et al. (1997) J. Biol. Chem. 272(28): 17605-17609; Ball, et al. (1997) J. Biol. Chem. 272(28): 17610-17614) behaved as a switch (see, FIG. 8).
In the case of OC[C@H]1O[C@H](O[C@H]2[C@H](O)[C@@H](O)C(O)O[C@@H]2CO)[C@H](O)[C@@H](O)[C@@H]1O (mixture of isomers) [maltose], the “increase of rate of nitrocefin hydrolysis compared to velocity without any sugar” value (shortened to “increase of rate … to velocity without any sugar”) is reported as “approximately 40%”. For OC[C@@H](O)[C@@H](O[C@H]1O[C@H](CO)[C@@H](O)[C@H](O)[C@H]1O)[C@H](O)[C@@H](O)CO [maltitol], the “increase of rate … to velocity without any sugar” value was “did not have a significant effect”. With OC[C@H]1O[C@H](O[C@H]2[C@H](O)[C@@H](O)[C@@H](O[C@H]3[C@H](O)[C@@H](O)[C@@H](O[C@H]4[C@H](O)[C@@H](O)[C@@H](O[C@H]5[C@H](O)[C@@H](O)[C@@H](O[C@H]6[C@H](O)[C@@H](O)C(O)O[C@@H]6CO)O[C@@H]5CO)O[C@@H]4CO)O[C@@H]3CO)O[C@@H]2CO)[C@H](O)[C@@H](O)[C@@H]1O (stereo partly shown) [maltohexose] the “increase of rate … to velocity without any sugar” value was “approximately 40%”. In the case of OC[C@H]1O[C@@](CO)(O[C@H]2O[C@H](CO)[C@@H](O)[C@H](O)[C@H]2O)[C@@H](O)[C@@H]1O [sucrose], the “increase of rate … to velocity without any sugar” value is reported as “did not have a significant effect”. For OC[C@H]1O[C@@H]2O[C@H]3[C@H](O)[C@@H](O)[C@@H](O[C@H]4[C@H](O)[C@@H](O)[C@@H](O[C@H]5[C@H](O)[C@@H](O)[C@@H](O[C@H]6[C@H](O)[C@@H](O)[C@@H](O[C@H]7[C@H](O)[C@@H](O)[C@@H](O[C@H]8[C@H](O)[C@@H](O)[C@@H](O[C@H]1[C@H](O)[C@H]2O)O[C@@H]8CO)O[C@@H]7CO)O[C@@H]6CO)O[C@@H]5CO)O[C@@H]4CO)O[C@@H]3CO [β-cyclodextrin], the “increase of rate … to velocity without any sugar” value was “did not have a significant effect”. With maltotriose the “increase of rate … to velocity without any sugar” value was “approximately 40%”.
